By IC50 is commonly meant the concentration that gives 50% inhibition. Low values mean greater potency, high ones weaker potency.

What all share (format): cell-based
For one experiment, the target named is T1, human TLR7 (Homo sapiens, UniProt Q9NYK1).
T1 construct: host or cells: HEK-Blue cells (HEK293-derived reporter line)
T1 sequence (Q9NYK1 27-1049): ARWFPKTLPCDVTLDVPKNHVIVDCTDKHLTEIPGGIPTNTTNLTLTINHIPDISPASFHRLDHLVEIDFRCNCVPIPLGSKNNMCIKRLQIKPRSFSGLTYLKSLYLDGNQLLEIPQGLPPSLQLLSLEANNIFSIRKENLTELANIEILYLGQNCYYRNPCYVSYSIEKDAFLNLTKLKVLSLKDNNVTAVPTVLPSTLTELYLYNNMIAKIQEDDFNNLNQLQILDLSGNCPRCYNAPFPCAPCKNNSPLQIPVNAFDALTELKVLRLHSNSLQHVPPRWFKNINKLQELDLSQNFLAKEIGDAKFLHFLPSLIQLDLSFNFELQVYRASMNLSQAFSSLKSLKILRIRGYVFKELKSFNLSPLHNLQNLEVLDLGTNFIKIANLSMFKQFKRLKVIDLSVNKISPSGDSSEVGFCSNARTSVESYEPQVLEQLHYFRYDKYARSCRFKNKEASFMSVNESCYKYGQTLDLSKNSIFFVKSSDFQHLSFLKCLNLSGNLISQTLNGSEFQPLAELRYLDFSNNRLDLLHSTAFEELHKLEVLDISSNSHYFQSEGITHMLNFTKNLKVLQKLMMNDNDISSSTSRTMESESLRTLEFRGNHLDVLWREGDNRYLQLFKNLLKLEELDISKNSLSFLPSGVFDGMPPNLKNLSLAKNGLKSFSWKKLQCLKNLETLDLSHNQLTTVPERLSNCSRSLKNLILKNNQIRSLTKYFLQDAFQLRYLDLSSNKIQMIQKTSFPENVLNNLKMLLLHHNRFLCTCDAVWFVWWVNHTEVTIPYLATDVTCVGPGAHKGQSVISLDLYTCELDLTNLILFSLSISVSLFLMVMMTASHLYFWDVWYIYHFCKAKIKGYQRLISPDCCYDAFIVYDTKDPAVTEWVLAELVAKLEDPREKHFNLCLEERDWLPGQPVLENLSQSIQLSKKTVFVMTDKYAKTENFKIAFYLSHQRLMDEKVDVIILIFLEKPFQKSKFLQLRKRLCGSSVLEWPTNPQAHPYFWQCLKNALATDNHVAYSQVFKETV
As to the kind of experiment: TLR7 inhibition reporter assay (HEK-Blue cells, SEAP reporter, gardiquimod stimulation). Conditions: HEK-Blue cells overexpressing human TLR7, SEAP reporter, gardiquimod 7.5 μM. Put shortly: (§1)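 Percent inhibition of agonist-induced SEAP secretion in HEK-Blue cells after 22 h at 37 °C. Stimuli: 7.5 μM gardiquimod, 15.9 μM R848, 5 nM ODN2006 for TLR7, TLR8 and TLR9, added after 30 min compound exposure over a 0.05 nM–50 μM range.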
On the technique in general: A reporter such as luciferase makes a cellular process visible.

A further experiment deals with T2, human TLR8 (Homo sapiens, UniProt Q9NR97).
T2 construct: host or cells: HEK-Blue cells (HEK293-derived reporter line)
T2 sequence (Q9NR97 27-1041): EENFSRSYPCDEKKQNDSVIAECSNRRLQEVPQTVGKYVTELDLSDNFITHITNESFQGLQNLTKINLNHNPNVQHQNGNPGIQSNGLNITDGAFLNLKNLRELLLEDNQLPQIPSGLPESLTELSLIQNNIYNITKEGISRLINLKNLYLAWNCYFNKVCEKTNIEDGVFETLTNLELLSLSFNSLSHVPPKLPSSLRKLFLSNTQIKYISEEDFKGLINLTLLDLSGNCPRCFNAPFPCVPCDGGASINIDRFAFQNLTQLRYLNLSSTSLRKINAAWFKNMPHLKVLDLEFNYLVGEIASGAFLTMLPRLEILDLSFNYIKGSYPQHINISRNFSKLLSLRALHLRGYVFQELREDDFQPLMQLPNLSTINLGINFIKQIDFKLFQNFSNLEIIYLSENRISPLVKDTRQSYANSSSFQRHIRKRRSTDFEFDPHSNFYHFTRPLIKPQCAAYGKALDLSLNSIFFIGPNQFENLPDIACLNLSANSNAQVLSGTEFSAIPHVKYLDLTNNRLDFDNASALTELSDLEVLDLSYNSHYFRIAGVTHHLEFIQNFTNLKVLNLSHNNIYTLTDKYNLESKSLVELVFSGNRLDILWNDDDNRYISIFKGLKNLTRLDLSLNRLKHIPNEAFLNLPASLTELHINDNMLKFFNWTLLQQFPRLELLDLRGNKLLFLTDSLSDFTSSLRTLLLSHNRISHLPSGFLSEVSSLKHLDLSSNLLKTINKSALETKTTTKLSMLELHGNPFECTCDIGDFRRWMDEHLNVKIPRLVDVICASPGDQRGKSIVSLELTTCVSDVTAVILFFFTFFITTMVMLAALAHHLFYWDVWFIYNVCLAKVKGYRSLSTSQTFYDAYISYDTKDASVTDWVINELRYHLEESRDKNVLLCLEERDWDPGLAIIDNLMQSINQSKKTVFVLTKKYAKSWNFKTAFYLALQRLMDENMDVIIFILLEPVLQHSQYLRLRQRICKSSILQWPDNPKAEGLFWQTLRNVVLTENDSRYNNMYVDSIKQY
As to the kind of experiment: TLR8 inhibition reporter assay (HEK-Blue cells, SEAP reporter, R848 stimulation). Conditions: HEK-Blue cells overexpressing human TLR8, SEAP reporter, R848 15.9 μM. Put shortly: as §1

The next experiment concerns the target T3, human TLR9 (Homo sapiens, UniProt Q9NR96).
T3 construct: host or cells: HEK-Blue cells (HEK293-derived reporter line)
T3 sequence (Q9NR96 26-1032): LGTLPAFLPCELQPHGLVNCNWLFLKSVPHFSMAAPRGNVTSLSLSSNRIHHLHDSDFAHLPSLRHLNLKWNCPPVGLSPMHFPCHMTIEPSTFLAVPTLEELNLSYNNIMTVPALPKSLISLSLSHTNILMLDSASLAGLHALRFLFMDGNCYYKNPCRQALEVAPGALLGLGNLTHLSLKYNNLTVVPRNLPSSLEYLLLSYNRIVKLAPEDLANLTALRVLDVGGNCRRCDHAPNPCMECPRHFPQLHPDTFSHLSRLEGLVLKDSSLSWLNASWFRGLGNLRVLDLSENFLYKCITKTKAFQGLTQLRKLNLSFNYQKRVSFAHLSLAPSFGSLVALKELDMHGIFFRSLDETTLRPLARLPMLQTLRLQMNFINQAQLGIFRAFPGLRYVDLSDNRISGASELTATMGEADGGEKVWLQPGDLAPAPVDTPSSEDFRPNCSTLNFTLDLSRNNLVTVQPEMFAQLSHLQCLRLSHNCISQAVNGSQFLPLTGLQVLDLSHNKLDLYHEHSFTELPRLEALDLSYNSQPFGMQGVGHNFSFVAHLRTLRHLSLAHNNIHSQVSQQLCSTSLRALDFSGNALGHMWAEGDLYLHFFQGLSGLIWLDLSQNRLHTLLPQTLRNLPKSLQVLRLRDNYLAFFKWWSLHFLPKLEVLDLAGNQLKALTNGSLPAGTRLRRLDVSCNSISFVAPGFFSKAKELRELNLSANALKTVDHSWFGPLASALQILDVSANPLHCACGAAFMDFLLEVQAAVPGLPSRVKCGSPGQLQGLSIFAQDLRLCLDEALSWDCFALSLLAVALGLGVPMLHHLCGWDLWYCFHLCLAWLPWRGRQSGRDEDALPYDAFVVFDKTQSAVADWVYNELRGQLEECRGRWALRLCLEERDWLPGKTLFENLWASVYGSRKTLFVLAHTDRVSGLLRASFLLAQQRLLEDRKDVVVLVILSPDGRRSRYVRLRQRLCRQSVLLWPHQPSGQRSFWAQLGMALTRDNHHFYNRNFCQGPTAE
As to the kind of experiment: TLR9 inhibition reporter assay (HEK-Blue cells, SEAP reporter, ODN2006 stimulation). Particulars: HEK-Blue cells overexpressing human TLR9, SEAP reporter, ODN2006 5 nM. Put shortly:
as §1

SMILES strings stand for the structures.

For the compound `Cc1cc(-c2[nH]c3ccc(C4CCN(C5COC5)CC4)cc3c2C(C)C)cc2ncnn12` [Example 727, 7-(3-isopropyl-5-(1-(oxetan-3-yl)piperidin-4-yl)-1H-indol-2-yl)-5-methyl-[1,2,4]triazolo[1,5-a]pyridine], the IC50 is less than 100 nM against human TLR7, less than 100 nM against human TLR8 and 1 to 50 µM against human TLR9.

For `Cc1nc2cc(-c3[nH]c4ccc(C5CCN(C6COC6)CC5)cc4c3C(C)C)ccn2n1` [Example 728, 7-(3-isopropyl-5-(1-(oxetan-3-yl)piperidin-4-yl)-1H-indol-2-yl)-2-methyl-[1,2,4]triazolo[1,5-a]pyridine], the concentration for half-maximal inhibition (IC50) against human TLR7 is less than 100 nM; at human TLR8, 1000 to 50000 nM; at human TLR9 it was 1 to 50 µM.

`CC(C)c1c(-c2ccc3ncnn3n2)[nH]c2ccc(C3CCN(C4COC4)CC3)cc12` [Example 729, 6-(3-isopropyl-5-(1-(oxetan-3-yl)piperidin-4-yl)-1H-indol-2-yl)-[1,2,4]triazolo[1,5-b]pyridazine]: the 50% inhibitory concentration (IC50) against human TLR7 is less than 100 nM; at human TLR8, 100 to 1000 nM; against human TLR9 it was 1 to 50 µM.

As for `Cc1c(-c2[nH]c3ccc(C4CCN(C5COC5)CC4)cc3c2C(C)C)nn2ncnc2c1C` [Example 730, 6-(3-isopropyl-5-(1-(oxetan-3-yl)piperidin-4-yl)-1H-indol-2-yl)-7,8-dimethyl-[1,2,4]triazolo[1,5-b]pyridazine], the IC50 on human TLR7 is less than 100 nM; against human TLR8, less than 100 nM; on human TLR9, 1 to 50 µM.

For the compound `COc1c(C)c(-c2[nH]c3ccc(C4CCN(C5COC5)CC4)cc3c2C(C)C)nn2ncnc12` [Example 731, 6-(3-isopropyl-5-(1-(oxetan-3-yl)piperidin-4-yl)-1H-indol-2-yl)-8-methoxy-7-methyl-[1,2,4]triazolo[1,5-b]pyridazine], the concentration for half-maximal inhibition (IC50) is less than 100 nM against human TLR7, less than 100 nM at human TLR8 and 1 to 50 µM on human TLR9.

Regarding `COc1cc(-c2[nH]c3ccc(C4CCN(C5COC5)CC4)cc3c2C(C)C)nn2ncnc12` [Example 732, 6-(3-isopropyl-5-(1-(oxetan-3-yl)piperidin-4-yl)-1H-indol-2-yl)-8-methoxy-[1,2,4]triazolo[1,5-b]pyridazine], the 50% inhibitory concentration (IC50) is less than 100 nM at human TLR7, less than 100 nM at human TLR8 and 1 to 50 µM on human TLR9.

`CC(C)c1c(-c2cn(C)c3ncccc23)[nH]c2ccc(C3CCN(C4COC4)CC3)cc12` [Example 733, 3-(3-isopropyl-5-(1-(oxetan-3-yl)piperidin-4-yl)-1H-indol-2-yl)-1-methyl-1H-pyrrolo[2,3-b]pyridine]: the values for the half-inhibitory concentration (IC50) against human TLR7, on human TLR8 and against human TLR9 were less than 100 nM, less than 100 nM and 1 to 50 µM, respectively.

For `CC(C)c1c(-c2ccc3cnnn3c2)[nH]c2ccc(C3CCN(C4COC4)CC3)cc12` [Example 734, 6-(3-isopropyl-5-(1-(oxetan-3-yl)piperidin-4-yl)-1H-indol-2-yl)-[1,2,3]triazolo[1,5-a]pyridine], the values for the IC50 against human TLR7, on human TLR8 and at human TLR9 were 100 to 1000 nM, 100 to 1000 nM and 1 to 50 µM, respectively.

Turning to `CC(C)c1c(-c2ccn3nncc3c2)[nH]c2ccc(C3CCN(C4COC4)CC3)cc12` [Example 735, 5-(3-isopropyl-5-(1-(oxetan-3-yl)piperidin-4-yl)-1H-indol-2-yl)-[1,2,3]triazolo[1,5-a]pyridine], the IC50 against human TLR7 was less than 100 nM; against human TLR8, 100 to 1000 nM; against human TLR9 it was 1 to 50 µM.

On to `CC(C)c1c(-c2ccn3cnnc3c2)[nH]c2ccc(C3CCN(C4COC4)CC3)cc12` [Example 736, 7-(3-isopropyl-5-(1-(oxetan-3-yl)piperidin-4-yl)-1H-indol-2-yl)-[1,2,4]triazolo[4,3-a]pyridine], for which the 50% inhibitory concentration (IC50) was less than 100 nM on human TLR7, 100 to 1000 nM at human TLR8 and 1 to 50 µM on human TLR9.

Regarding `Cc1cc(-c2[nH]c3ccc(C4CCN(C5COC5)CC4)cc3c2C(C)C)cn2nncc12` [Example 737, 6-(3-isopropyl-5-(1-(oxetan-3-yl)piperidin-4-yl)-1H-indol-2-yl)-4-methyl-[1,2,3]triazolo[1,5-a]pyridine], the IC50 is 1000 to 50000 nM on human TLR7, 1000 to 50000 nM against human TLR8 and 1 to 50 µM against human TLR9.

Source of the values: US11739098B2 (BRISTOL-MYERS SQUIBB COMPANY, priority 2017, dated 2023).
